US20250281478A1, “METHODS FOR PREVENTING OR TREATING KIDNEY DISEASES” (JEAMOON BEIJING CO., LTD., priority 2022, published 2025)

Tests used:
Assay type in all cases: in vivo, C57BL/6N mice
[1] = test system: mice with sustained adenine-induced renal failure; assay: Glomerular filtration rate in mice with sustained adenine-induced renal failure (TGFR system); settings: TAK875 30 mg/kg p.o. QD for 2 weeks; 3 weeks continuous 0.25% adenine diet; FIG. 4
Method: (§1) • a) Control group: Fed with adenine-free feed; other procedures were the same as those in the model group. • b) Model group: Fed with feed containing 0.25% adenine for modelling. • c) LY-10 mg/kg group: Model+LY2922470 (10 mg/kg, p.o., QD). • d) LY-30 mg/kg group: Model+LY2922470 (30 mg/kg, p.o., QD). • e) LY-60 mg/kg group: Model+LY2922470 (60 mg/kg, p.o., QD). • f) TAK875 group: Model+TAK875 (30 mg/kg, p.o., QD).
(§2) Except for the control group, all other mice were fed with a diet containing 0.25% adenine for modelling. The control group was fed with a normal diet. All mice were allowed free access to food. One week after modeling, each group of mice was administered the respective treatment via oral gavage once daily in the afternoon for two consecutive weeks. The control group and the model group received vehicle under a same condition. The adenine-containing diet was continuously administered for modeling throughout the treatment period until the end of the experiment. The physical condition of the mice was monitored, and body weight was measured and recorded weekly. Blood samples were collected from the orbital venous plexus at 1 week (post-modeling) and 3 weeks (after 2 weeks of treatment). Serum was separated for the measurement of serum creatinine (CRE) and blood urea nitrogen (BUN). At the end of the two-week treatment, renal function of each group was assessed using a TGFR renal function monitoring and smart analysis system. After testing, tissues were collected from the mice to confirm the efficacy of the treatment.
(§3) Statistical analyses were performed using GraphPad Prism 8.0 software. Continuous data of each group were expressed as mean+SD. One-way ANOVA was used for multi-group comparisons, and Student's t-test was used for comparisons between two groups. A p-value<0.05 was considered statistically significant. For categorical data, chi-square tests were used to compare between groups, with p<0.05 indicating a statistically significant difference.
One week later, LY2922470 or TAK875 was administrated for treatment. […]

[2] = test system: mice with adenine-induced renal failure; assay: Renal fibrosis by Masson's trichrome staining in adenine-induced renal failure mice; settings: TAK875 30 mg/kg p.o. QD for 2 weeks; 3 weeks of modeling; FIG. 6
Method: Mice were modeled and administered drugs as described in Example 3. After two weeks of drug administration, the mice were euthanized, and their kidneys were fixed, sectioned, stained with Masson's trichrome, and analyzed.
Whole-slide scanning was performed using a fully automated digital pathology scanner KF-PRO-120 from Ningbo Jiangfeng Bioinformatics Technology Co., Ltd. Masson-stained images were analyzed using the Area Quantification module in HALO software. The blue staining of collagen fibers was used as the unified criterion for positivity. The images were analyzed, and the percentage of blue-stained collagen fibers in the tissue was calculated.
Statistical analysis was conducted using GraphPad Prism 8.0. Continuous data for each group were expressed as mean+SD. One-way ANOVA was used for multi-group comparisons, and Student's t-test was used for comparisons between two groups. A p-value<0.05 was considered statistically significant. For categorical data, chi-square tests were used for comparisons among groups, and a p-value<0.05 was considered statistically significant.

[3] = test system: mice with adenine-induced renal failure; assay: Serum creatinine (CREA) in adenine-induced renal failure mice
Method: as §1, §2, §3
(§4) Mice were fed a 0.25% adenine-containing diet. After one week, the mice were treated with LY2922470 or TAK875. During the treatment period, the adenine-containing diet was continued for modeling. After three weeks of adenine feeding (i.e., two weeks of drug administration), blood samples were collected from the mice, and serum was isolated for CREA and BUN measurements.

[4] = test system: mice with adenine-induced renal failure; assay: Survival of mice with adenine-induced renal failure; settings: TAK875 30 mg/kg p.o. QD
Method: • 1. Experimental Animals: C57BL/6N, 8 weeks old, SPF grade, male. • 2. Experimental Drugs: • LY2922470 (Shanghai Taoshu Biotechnology Co., Ltd.) • TAK875 (Shanghai Taoshu Biotechnology Co., Ltd.)
1) Preparation of TAK875: A total of 27 mg of TAK875 powder was accurately weighed using an analytical balance and dissolved in 9 mL of 0.8% CMC-Na solution. The mixture was sonicated for 5 minutes to form a 3 mg/mL white suspension. The suspension was stored at 4° C. for later use.
2) Preparation of LY2922470: A total of 80 mg of LY2922470 yellow crystals was added to 200 μL of DMSO to form a clear yellow solution. The solution was gradually added in batches to 10 mL of 0.8% CMC-Na solution. After heating and sonication for 5 hours, an 8 mg/mL white suspension of LY2922470 was obtained. The suspension was stored at 4° C. for later use.
Eight-week-old male C57BL/6N mice were acclimatized for one week and then randomly divided into six groups. Except for the control group, all mice were fed a 0.25% adenine-containing diet for modelling. The control group received a normal diet. The mice had free access to food. One week after model induction, mice in each group were orally administered the corresponding drug once daily in the afternoon, according to their group assignment. The control group and the model group received vehicle under a same condition. During the treatment period, the adenine-containing diet was continued. Mouse survival was monitored until the end of the experiment.

[5] = test system: mice with adenine-induced renal failure; assay: Blood urea nitrogen (BUN) in adenine-induced renal failure mice
Method: as §1, §2, §3, §4

[6] = TAK875 30 mg/kg p.o. QD for 2 weeks
[7] = TAK875 30 mg/kg p.o. QD, mean ± SD

Q: With `Cc1cc(OCCCS(C)(=O)=O)cc(C)c1-c1cccc(COc2ccc3c(c2)OC[C@H]3CC(=O)O)c1` [TAK875] as the molecule, how does the “GFR compared with the model group” value [1] read?
A: increased

Q: And the “Degree of renal fibrosis compared to the model group (Masson staining)” value [2]?
A: not significantly reduced

Q: What about the “CREA level compared with the model group” value [3, 6] of the same molecule?
A: did not significantly reduce

Q: What about the “CREA after modeling for 3 weeks (after drug administration for 2 weeks)” value [3, 7] of the same molecule?
A: 137.68 ± 30.23 µmol/L

Q: What about the “Survival Rate (%)” value ([4]; started 1 week after start of continued 0.25% adenine diet, end of experiment, 30 mg/kg) of the same molecule?
A: 46.2%

Q: And the “Count after Drug Administration (surviving mice)” value ([4]; 13 at enrollment)?
A: 6

Q: What about the “BUN level compared with the model group” value [5, 6] of the same molecule?
A: did not significantly reduce

Q: And the “BUN after modeling for 3 weeks (after drug administration for 2 weeks)” value [5, 7]?
A: 25.07 ± 4.91 mmol/L

Q: And the “BUN after modeling for 1 week (before drug administration)” value ([5]; baseline of the TAK875 30 mg/kg group, mean ± SD)?
A: 11.25 ± 3.98 mmol/L
